Experiments:
[1] = target: T1, Cholecystokinin CCK1 (CCKA) (Homo sapiens, UniProt P32238); test: SafetyScreen44 (Panlabs) panel; type: binding; settings: 10 μM
T1 construct: Panlabs (SafetyScreen44 panel)
Method: (§1) Other targets included with less than ≥50% stimulation at a concentration of 10 μM: Acetylcholinesterase, COX-1, COX-2, MAO-A, PDE3A, PDE4D2, Protein Tyrosine Kinase (LCK), Adenosine A2A, Adrenergic α1A, Adrenergic α2A, Adrenergic β1, Adrenergic β2, Androgen (Testosterone), Calcium Channel L-Type (Dihydropyridine), CB1, CB2, Cholecystokinin CCK1 (CCKA), Dopamine D1, Dopamine D2S, Endothelin ETA, GABAA (Flunitrazepam, Central), Glucocorticoid, Glutamate-NMDA (Agonism), Histamine H1, Histamine H2, Muscarinic M1, Muscarinic M2, Muscarinic M3, Nicotinic Acetylcholine α4β2, (Cytisine), DOP, KOP, MOP, Potassium Channel [KA], Potassium Channel hERG, Serotonin (5-Hydroxytryptamine) 5-HT1A, 5-HT1B, 5-HT3, Na-channel site 2, DAT, NET, SERT, Vasopressin V1A

DAT = target: T2, DAT (Homo sapiens, UniProt Q01959); test: SafetyScreen44 (Panlabs) panel; type: binding; settings: 10 μM
T2 construct: Panlabs (SafetyScreen44 panel)
Method: as §1

DOP = target: T3, DOP (Homo sapiens, UniProt P41143); test: SafetyScreen44 (Panlabs) panel; type: binding; settings: 10 μM
T3 construct: Panlabs (SafetyScreen44 panel)
Method: as §1

Dopamine D1 = target: T4, Dopamine D1 (Homo sapiens, UniProt P21728); test: SafetyScreen44 (Panlabs) panel; type: binding; settings: 10 μM
T4 construct: Panlabs (SafetyScreen44 panel)
Method: as §1

Dopamine D2S = target: T5, Dopamine D2S (Homo sapiens, UniProt P14416); test: SafetyScreen44 (Panlabs) panel; type: binding; settings: 10 μM
T5 construct: Panlabs (SafetyScreen44 panel)
Method: as §1

Endothelin ETA = target: T6, Endothelin ETA (Homo sapiens, UniProt P25101); test: SafetyScreen44 (Panlabs) panel; type: binding; settings: 10 μM
T6 construct: Panlabs (SafetyScreen44 panel)
Method: as §1

[2] = test system: GABAA (Flunitrazepam, Central); test: SafetyScreen44 (Panlabs) panel; type: binding; settings: 10 μM
Method: as §1

Glucocorticoid = target: T7, Glucocorticoid (Homo sapiens, UniProt P04150); test: SafetyScreen44 (Panlabs) panel; type: binding; settings: 10 μM
T7 construct: Panlabs (SafetyScreen44 panel)
Method: as §1

Glutamate-NMDA (Agonism) = test: SafetyScreen44 (Panlabs) panel; type: binding; settings: 10 μM
Method: as §1

Histamine H1 = target: T8, Histamine H1 (Homo sapiens, UniProt P35367); test: SafetyScreen44 (Panlabs) panel; type: binding; settings: 10 μM
T8 construct: Panlabs (SafetyScreen44 panel)
Method: as §1

Histamine H2 = target: T9, Histamine H2 (Homo sapiens, UniProt P25021); test: SafetyScreen44 (Panlabs) panel; type: binding; settings: 10 μM
T9 construct: Panlabs (SafetyScreen44 panel)
Method: as §1

KOP = target: T10, KOP (Homo sapiens, UniProt P41145); test: SafetyScreen44 (Panlabs) panel; type: binding; settings: 10 μM
T10 construct: Panlabs (SafetyScreen44 panel)
Method: as §1

MOP = target: T11, MOP (Homo sapiens, UniProt P35372); test: SafetyScreen44 (Panlabs) panel; type: binding; settings: 10 μM
T11 construct: Panlabs (SafetyScreen44 panel)
Method: as §1

Muscarinic M1 = target: T12, Muscarinic M1 (Homo sapiens, UniProt P11229); test: SafetyScreen44 (Panlabs) panel; type: binding; settings: 10 μM
T12 construct: Panlabs (SafetyScreen44 panel)
Method: as §1

Muscarinic M2 = target: T13, Muscarinic M2 (Homo sapiens, UniProt P08172); test: SafetyScreen44 (Panlabs) panel; type: binding; settings: 10 μM
T13 construct: Panlabs (SafetyScreen44 panel)
Method: as §1

Muscarinic M3 = target: T14, Muscarinic M3 (Homo sapiens, UniProt P20309); test: SafetyScreen44 (Panlabs) panel; type: binding; settings: 10 μM
T14 construct: Panlabs (SafetyScreen44 panel)
Method: as §1

NET = target: T15, NET (Homo sapiens, UniProt P23975); test: SafetyScreen44 (Panlabs) panel; type: binding; settings: 10 μM
T15 construct: Panlabs (SafetyScreen44 panel)
Method: as §1

Na-channel site 2 = test: SafetyScreen44 (Panlabs) panel; type: binding; settings: 10 μM
Method: as §1

[3] = target: T16, Nicotinic Acetylcholine α4β2, (Cytisine) (Homo sapiens, UniProt P17787+P43681); test: SafetyScreen44 (Panlabs) panel; type: binding; settings: 10 μM
T16 construct: Panlabs (SafetyScreen44 panel)
Method: as §1

Potassium Channel [KA] = test: SafetyScreen44 (Panlabs) panel; type: binding; settings: 10 μM
Method: as §1

Potassium Channel hERG = target: T17, Potassium Channel hERG (Homo sapiens, UniProt Q12809); test: SafetyScreen44 (Panlabs) panel; type: binding; settings: 10 μM
T17 construct: Panlabs (SafetyScreen44 panel)
Method: as §1

SERT = target: T18, SERT (Homo sapiens, UniProt P31645); test: SafetyScreen44 (Panlabs) panel; type: binding; settings: 10 μM
T18 construct: Panlabs (SafetyScreen44 panel)
Method: as §1

[4] = target: T19, Serotonin (5-Hydroxytryptamine) 5-HT1A (Homo sapiens, UniProt P08908); test: SafetyScreen44 (Panlabs) panel; type: binding; settings: 10 μM
T19 construct: Panlabs (SafetyScreen44 panel)
Method: as §1

Vasopressin V1A = target: T20, Vasopressin V1A (Homo sapiens, UniProt P37288); test: SafetyScreen44 (Panlabs) panel; type: binding; settings: 10 μM
T20 construct: Panlabs (SafetyScreen44 panel)
Method: as §1

[5] = at therapeutically effective doses in animals and humans; cited from earlier work

T1 sequence (P32238 whole entry): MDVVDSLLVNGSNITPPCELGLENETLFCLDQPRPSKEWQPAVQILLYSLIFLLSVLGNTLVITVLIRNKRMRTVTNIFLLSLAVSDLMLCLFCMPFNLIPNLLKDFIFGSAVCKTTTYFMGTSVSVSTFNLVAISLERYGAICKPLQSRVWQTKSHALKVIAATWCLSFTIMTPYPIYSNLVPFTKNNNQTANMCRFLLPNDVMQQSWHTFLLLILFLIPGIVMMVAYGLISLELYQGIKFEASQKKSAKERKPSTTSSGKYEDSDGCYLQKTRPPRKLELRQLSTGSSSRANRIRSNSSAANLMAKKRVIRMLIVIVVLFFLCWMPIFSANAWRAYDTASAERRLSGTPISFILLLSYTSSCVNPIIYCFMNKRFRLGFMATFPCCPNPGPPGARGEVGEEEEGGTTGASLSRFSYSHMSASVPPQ
T18 sequence (P31645 whole entry, species assumed): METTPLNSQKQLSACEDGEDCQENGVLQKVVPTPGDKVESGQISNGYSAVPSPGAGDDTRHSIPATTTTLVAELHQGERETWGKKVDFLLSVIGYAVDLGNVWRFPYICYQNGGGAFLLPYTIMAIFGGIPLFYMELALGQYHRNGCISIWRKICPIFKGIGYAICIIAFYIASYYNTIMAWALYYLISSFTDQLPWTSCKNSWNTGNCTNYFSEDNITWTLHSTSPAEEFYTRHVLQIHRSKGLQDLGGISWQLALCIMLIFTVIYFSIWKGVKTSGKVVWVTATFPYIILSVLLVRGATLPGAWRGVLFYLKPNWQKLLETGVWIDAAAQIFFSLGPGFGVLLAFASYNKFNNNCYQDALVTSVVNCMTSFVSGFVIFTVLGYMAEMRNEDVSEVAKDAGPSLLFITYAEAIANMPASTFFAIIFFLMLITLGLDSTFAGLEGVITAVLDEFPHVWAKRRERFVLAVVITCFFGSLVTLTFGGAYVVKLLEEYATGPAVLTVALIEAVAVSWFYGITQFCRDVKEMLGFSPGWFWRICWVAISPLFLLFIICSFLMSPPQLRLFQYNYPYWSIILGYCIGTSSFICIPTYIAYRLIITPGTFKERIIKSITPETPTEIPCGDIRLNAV
T12 sequence (P11229 whole entry): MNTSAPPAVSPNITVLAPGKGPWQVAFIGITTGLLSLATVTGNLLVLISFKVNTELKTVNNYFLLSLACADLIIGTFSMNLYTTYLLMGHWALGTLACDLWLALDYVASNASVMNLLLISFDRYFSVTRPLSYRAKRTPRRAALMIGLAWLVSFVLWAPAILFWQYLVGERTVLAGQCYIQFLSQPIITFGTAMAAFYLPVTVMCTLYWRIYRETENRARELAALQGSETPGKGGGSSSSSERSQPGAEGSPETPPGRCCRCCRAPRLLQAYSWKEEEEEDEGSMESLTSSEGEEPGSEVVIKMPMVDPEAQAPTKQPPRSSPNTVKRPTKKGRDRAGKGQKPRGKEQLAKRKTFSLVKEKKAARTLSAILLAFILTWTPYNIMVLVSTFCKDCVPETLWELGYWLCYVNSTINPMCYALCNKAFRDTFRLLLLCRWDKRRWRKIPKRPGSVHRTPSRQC
T14 sequence (P20309 whole entry): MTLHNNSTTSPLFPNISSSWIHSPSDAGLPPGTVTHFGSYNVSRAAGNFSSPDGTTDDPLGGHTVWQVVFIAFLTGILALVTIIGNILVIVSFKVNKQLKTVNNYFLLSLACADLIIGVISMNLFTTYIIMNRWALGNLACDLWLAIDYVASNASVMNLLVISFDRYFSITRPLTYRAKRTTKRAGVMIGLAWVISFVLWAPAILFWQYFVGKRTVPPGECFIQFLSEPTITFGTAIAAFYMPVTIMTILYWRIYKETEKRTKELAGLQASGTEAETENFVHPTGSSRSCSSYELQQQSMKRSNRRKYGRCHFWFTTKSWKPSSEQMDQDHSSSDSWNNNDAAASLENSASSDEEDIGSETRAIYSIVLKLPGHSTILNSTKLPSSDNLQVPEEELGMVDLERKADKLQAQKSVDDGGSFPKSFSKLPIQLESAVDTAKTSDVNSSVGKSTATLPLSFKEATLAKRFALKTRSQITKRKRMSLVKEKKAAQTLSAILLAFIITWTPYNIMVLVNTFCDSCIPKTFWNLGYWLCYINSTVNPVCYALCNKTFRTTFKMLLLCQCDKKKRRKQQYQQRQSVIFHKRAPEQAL
T8 sequence (P35367 whole entry): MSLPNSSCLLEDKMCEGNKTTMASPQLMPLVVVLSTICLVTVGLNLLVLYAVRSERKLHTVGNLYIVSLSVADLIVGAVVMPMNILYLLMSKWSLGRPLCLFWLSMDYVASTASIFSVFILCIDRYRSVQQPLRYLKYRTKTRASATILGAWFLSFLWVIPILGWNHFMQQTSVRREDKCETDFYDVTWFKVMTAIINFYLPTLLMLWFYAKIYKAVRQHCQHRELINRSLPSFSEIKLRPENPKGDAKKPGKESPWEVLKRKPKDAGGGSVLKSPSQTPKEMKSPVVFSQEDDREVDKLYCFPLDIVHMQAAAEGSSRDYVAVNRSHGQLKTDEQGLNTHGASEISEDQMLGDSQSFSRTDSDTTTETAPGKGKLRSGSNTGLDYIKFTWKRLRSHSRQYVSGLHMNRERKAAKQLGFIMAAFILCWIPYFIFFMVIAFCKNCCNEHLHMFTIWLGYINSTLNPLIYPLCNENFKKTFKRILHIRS
T7 sequence (P04150 whole entry): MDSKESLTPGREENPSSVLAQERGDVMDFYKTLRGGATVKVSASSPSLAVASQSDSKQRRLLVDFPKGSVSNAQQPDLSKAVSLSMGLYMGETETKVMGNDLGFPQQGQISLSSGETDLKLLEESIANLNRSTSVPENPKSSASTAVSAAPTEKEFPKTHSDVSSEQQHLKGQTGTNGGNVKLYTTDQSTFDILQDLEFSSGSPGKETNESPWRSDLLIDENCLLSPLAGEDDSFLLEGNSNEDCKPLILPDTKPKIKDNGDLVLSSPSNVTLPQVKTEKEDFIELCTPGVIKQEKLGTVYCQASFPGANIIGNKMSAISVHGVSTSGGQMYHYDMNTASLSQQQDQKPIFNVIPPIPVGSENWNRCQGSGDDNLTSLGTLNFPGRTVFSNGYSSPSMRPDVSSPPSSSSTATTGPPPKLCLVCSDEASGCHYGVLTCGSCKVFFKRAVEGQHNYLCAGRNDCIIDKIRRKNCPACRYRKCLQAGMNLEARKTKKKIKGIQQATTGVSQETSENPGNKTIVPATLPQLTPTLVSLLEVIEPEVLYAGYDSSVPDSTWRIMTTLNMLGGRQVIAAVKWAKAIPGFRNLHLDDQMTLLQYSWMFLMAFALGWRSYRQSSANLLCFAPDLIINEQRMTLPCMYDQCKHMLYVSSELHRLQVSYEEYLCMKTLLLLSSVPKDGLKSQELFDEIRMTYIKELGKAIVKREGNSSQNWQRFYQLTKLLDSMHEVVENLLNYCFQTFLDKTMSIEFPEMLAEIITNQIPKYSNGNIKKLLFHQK
T16 sequence (P43681 29-627 limits assumed): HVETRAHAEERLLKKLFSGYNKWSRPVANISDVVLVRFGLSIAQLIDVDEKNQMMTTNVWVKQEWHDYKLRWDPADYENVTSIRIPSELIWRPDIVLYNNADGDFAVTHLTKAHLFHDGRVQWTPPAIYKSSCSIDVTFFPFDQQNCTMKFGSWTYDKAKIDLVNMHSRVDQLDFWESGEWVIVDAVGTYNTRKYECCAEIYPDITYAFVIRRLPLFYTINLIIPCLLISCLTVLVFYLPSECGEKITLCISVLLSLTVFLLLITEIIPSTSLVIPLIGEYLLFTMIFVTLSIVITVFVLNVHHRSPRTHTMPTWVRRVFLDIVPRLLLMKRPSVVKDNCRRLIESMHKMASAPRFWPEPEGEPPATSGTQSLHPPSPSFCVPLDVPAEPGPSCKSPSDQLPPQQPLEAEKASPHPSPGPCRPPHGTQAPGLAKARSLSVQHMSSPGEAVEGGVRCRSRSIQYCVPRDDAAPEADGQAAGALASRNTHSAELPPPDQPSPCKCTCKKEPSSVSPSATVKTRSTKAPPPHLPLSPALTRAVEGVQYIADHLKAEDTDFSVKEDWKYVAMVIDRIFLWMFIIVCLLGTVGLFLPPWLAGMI
T16 sequence (P17787 26-502): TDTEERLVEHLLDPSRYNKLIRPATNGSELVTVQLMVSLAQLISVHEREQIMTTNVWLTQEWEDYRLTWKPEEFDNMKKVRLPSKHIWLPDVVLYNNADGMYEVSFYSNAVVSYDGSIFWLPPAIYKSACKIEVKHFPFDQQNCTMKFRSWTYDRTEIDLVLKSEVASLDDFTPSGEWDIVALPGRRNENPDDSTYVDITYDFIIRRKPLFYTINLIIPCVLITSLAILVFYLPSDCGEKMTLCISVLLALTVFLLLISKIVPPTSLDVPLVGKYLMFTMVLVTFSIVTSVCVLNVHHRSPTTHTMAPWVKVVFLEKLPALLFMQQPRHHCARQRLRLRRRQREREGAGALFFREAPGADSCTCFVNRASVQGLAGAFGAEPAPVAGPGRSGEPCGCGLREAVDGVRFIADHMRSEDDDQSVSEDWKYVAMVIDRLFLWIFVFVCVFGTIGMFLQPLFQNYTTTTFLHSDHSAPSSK
T13 sequence (P08172 whole entry): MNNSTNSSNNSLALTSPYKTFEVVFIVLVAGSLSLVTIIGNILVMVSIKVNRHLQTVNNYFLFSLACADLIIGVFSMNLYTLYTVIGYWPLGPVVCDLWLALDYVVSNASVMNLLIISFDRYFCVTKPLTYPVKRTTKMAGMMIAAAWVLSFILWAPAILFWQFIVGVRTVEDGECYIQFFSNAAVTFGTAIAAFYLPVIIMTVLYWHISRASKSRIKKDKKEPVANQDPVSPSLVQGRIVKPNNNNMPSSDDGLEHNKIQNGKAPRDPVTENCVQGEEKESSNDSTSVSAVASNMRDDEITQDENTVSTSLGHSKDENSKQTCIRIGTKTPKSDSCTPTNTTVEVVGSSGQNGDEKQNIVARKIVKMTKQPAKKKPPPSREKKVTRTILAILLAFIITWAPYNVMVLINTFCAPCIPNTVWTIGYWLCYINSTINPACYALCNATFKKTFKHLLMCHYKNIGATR

CCC(N)Cc1cc(OC)c(C)cc1OC (stereo not shown) [Ariadne (32), 1-(2,5-dimethoxy-4-methylphenyl)butan-2-amine]
% stimulation [1]: < 50% | % stimulation (DAT): < 50% | % stimulation (DOP): < 50% | % stimulation (Dopamine D1): < 50% | % stimulation (Dopamine D2S): < 50% | % stimulation (Endothelin ETA): < 50% | % stimulation [2]: < 50% | % stimulation (Glucocorticoid): < 50% | % stimulation (Glutamate-NMDA (Agonism)): < 50% | % stimulation (Histamine H1): < 50% | % stimulation (Histamine H2): < 50% | % stimulation (KOP): < 50% | % stimulation (MOP): < 50% | % stimulation (Muscarinic M1): < 50% | % stimulation (Muscarinic M2): < 50% | % stimulation (Muscarinic M3): < 50% | % stimulation (NET): < 50% | % stimulation (Na-channel site 2): < 50% | % stimulation [3]: < 50% | % stimulation (Potassium Channel [KA]): < 50% | % stimulation (Potassium Channel hERG): < 50% | % stimulation (SERT): < 50% | % stimulation [4]: < 50% | % stimulation (Vasopressin V1A): < 50% | hallucinogenic effect [5]: no hallucinogenic effect
